What was measured:
[1] = tested on: patients with Type 2 diabetes and nephropathy; test: Triple-blind, randomized, placebo-controlled study: primary composite endpoint (doubling of serum creatinine, end stage renal disease or death) and components; type: in vivo, human
Description: (§1) The study involved male and female patients ranging in age from 31 to 70 years diagnosed with Type 2 diabetes and nephropathy; the latter defined as two urine albumin:creatinine ratios from a first morning specimen >300 mg/g (34 mg/mmol) (or a 24-hr urine protein >=500 mg (0.5 g/day)) and two serum creatinine values between 1.3 and 3.0 mg/dL (115 and 265 μmol/L) (lower limit of 1.5 mg/dL (133 μmol/L)for males >60 kg). […] Journal of the Renin Angiotensin Aldosterone System 2000;1(4):328-35. Patients were excluded from the study if diagnosed with Type 1 diabetes or nondiabetic renal disease, including renal artery stenosis. Patients with a history of heart failure, myocardial infarction or coronary artery bypass grafting within 1 month, cerebral vascular accident or percutaneous transluminal coronary angioplasty within 6 months or transient ischemic attacks within 1 year prior to enrollment were excluded.
(§2) During the 6-week screening phase, hypertensive patients continued to take their standard antihypertensive therapy. However, in those patients taking angiotensin I converting enzyme inhibitors or angiotensin II receptor antagonists, these agents were discontinued at the beginning of the screening phase and replaced by alternative open-label therapy at the investigator's discretion (diuretic, calcium-channel antagonist, α- or β-blocker, and/or centrally acting agent). […] After an additional 8 weeks, further antihypertensive therapy with agents described above (exclusive of angiotensin I converting enzyme inhibitors or angiotensin II receptor antagonists), were added or increased in dosage to achieve the goal trough sitting blood pressure.
(§3) Throughout the study, patients received standard medical care for treatment of diabetes, including routine measurements of HbAlc and fasting serum glucose concentrations. Study visits were scheduled every 3 months or more frequently if necessary for monitoring trough sitting blood pressure control, changes in laboratory measurements, adverse experiences and endpoints. Patients who discontinued early from blinded study therapy were followed every 3 months until study end for primary and secondary endpoints, blood pressure control and laboratory measurements. Those who could not return for clinic visits were contacted by telephone for endpoints of dialysis, renal transplantation or death.
(§4) The primary efficacy parameter was a composite endpoint of time to the first event of doubling of serum creatinine concentration, end stage renal disease, or death. End stage renal disease was defined as the need for chronic dialysis or renal transplantation. The prespecified secondary endpoint, cardiovascular morbidity and mortality, was a composite of myocardial infarction, stroke, hospitalization for heart failure or unstable angina, coronary or peripheral revascularization, and death from cardiovascular-related causes. Analyses of the components of both the primary and secondary composite endpoints also were prespecified. Other secondary endpoints included progression of renal disease as assessed by the slope of the reciprocal of serum creatinine concentration and changes in proteinuria. (See Mitch W E, Walser M, Buffington G A, Lemann J Jr. A simple method of estimating progression of chronic renal failure. Lancet 1976;2:1326-8.) An independent, blinded endpoint committee adjudicated all potential clinical endpoints occurring from the time of randomization until study termination.
(§5) A supportive, per-protocol analysis excluded patients who violated the inclusion/exclusion criteria, and censored patients 14 days after permanent discontinuation of study medication.

[2] = tested on: patients with Type 2 diabetes and nephropathy; test: Secondary endpoints: proteinuria and progression of renal disease (slope of reciprocal of serum creatinine); type: in vivo, human; settings: on-treatment; p=0.01 versus placebo
Description: as §1
During the 6-week screening phase, hypertensive patients continued to take their standard antihypertensive therapy. […]
The primary efficacy parameter was a composite endpoint of time to the first event of doubling of serum creatinine concentration, end stage renal disease, or death. […] Other secondary endpoints included progression of renal disease as assessed by the slope of the reciprocal of serum creatinine concentration and changes in proteinuria. […]

[3] = tested on: patients with Type 2 diabetes and nephropathy; test: Secondary endpoint: cardiovascular morbidity and mortality and components; type: in vivo, human
Description: as §1, §2, §4, §5

[4] = tested on: patients with Type 2 diabetes and nephropathy; test: Discontinuation from study therapy and adverse experiences; settings: n = 751
Description: as §1, §2, §3

[5] = tested on: patients with Type 2 diabetes and nephropathy; test: Trough sitting blood pressure during the study; type: in vivo, human
Description: The results reported here represent a mean follow-up time of 3.4 years.
as §1, §2
as §3, with “death. […]” for “death.”

[6] = intention-to-treat, n = 751, mean follow-up 3.4 years
[7] = losartan relative to placebo, p=0.010

For “2-N-butyl-4-chloro-5-hydroxymethyl-1-[(2′-(1H-tetrazol-5-yl)biphenyl-4-yl)-methyl]imidazole, potassium salt [Losartan]”, the “Patients reaching primary composite endpoint (number)” value ([1]; intention-to-treat analysis) was 327 patients, the “Patients reaching primary composite endpoint (percent)” value ([1]; intention-to-treat analysis) was 43.5% and the “Primary composite endpoint, event rate” value ([1]; intention-to-treat analysis) was 15.9 /100 patient years of follow-up. For the same substance, the “Doubling of sCr, ESRD or Death (composite primary endpoint), patients” value ([1]; intention-to-treat, losartan 50 to 100 mg once daily +CT, n = 751, mean follow-up 3.4 years) was 327 (43.5) n (%), the “Death, patients” value [1, 6] was 158 (21.0) n (%) and the “Doubling of sCr or ESRD, patients” value [1, 6] was 226 (30.1) n (%). The “Doubling of sCr, patients” value [1, 6] was 162 (21.6) n (%), the “ESRD or Death, patients” value [1, 6] was 255 (34.0) n (%) and the “ESRD, patients” value [1, 6] was 147 (19.6) n (%). For the same substance, the “Risk Reduction, Doubling of sCr, ESRD or Death (composite primary endpoint)” value ([1]; losartan relative to placebo, intention-to-treat, Cox model, p=0.024) was 16%, the “Risk Reduction, ESRD” value ([1]; losartan relative to placebo, p=0.002) was 28% and the “Risk Reduction, Doubling of sCr” value ([1]; losartan relative to placebo, p=0.006) was 25%. The “Risk Reduction, Doubling of sCr or ESRD” value [1, 7] was 21%, the “Risk Reduction, ESRD or Death” value [1, 7] was 20% and the “Risk Reduction, Death” value ([1]; losartan relative to placebo, p=0.882) was −2%. For the same substance, the “Decrease in risk of primary composite endpoint after correcting for blood pressure” value ([1]; mean arterial pressure as time-varying covariate, p=0.034) was 15%, the “Risk reduction in primary composite endpoint, per protocol analysis” value ([1]; patients who remained on treatment throughout the protocol, p=0.008) was 22% and the “Effect in pre-defined subgroups (primary composite, ESRD, ESRD or death)” value ([1]; patients with baseline serum creatinine greater than 2.0 mg/dL and urine albumin:creatinine ratio greater than 2000 mg/g) was “particularly beneficial”. For the same substance, the “Rate of decline in renal function, median slope of reciprocal of serum creatinine concentration” value [2] was −0.056 dl/mg/yr, the “Composite endpoint of cardiovascular morbidity and mortality, difference versus placebo plus conventional therapy” value ([3]; losartan plus conventional therapy) was “no significant difference” and the “Patients with myocardial infarction” value ([3]; mean follow-up 3.4 years) was 50 patients. The “Patients with hospitalization for heart failure” value ([3]; time to first hospitalization, mean follow-up 3.4 years) was 89 patients, the “Risk reduction, hospitalization for heart failure” value ([3]; versus placebo, p=0.005) was 32% and the “Risk reduction, myocardial infarction” value ([3]; versus placebo, p=0.08, did not reach statistical significance) was 28%. For the same substance, the “Risk reduction, fatal or non-fatal cardiovascular event” value ([3]; versus placebo, p=0.26) was 9%, the “Discontinued for Any Reason” value ([4]; discontinuation from study therapy) was 341 (45.4) n (%) and the “Clinical adverse experience causing discontinuation: End Stage Renal Disease” value [4] was 16 (2.1) n (%). For the same substance, the “Clinical adverse experience causing discontinuation: Heart Failure” value [4] was 23 (3.0) n (%), the “Clinical adverse experience causing discontinuation: Myocardial Infarction” value [4] was 7 (0.9) n (%) and the “Clinical adverse experience causing discontinuation: Stroke” value [4] was 9 (1.2) n (%). The “Clinical adverse experience causing discontinuation: Worsening renal insufficiency” value [4] was 8 (1.1) n (%), the “Discontinuation from study therapy: Clinical Adverse Experience” value [4] was 128 (17.0) n (%) and the “Discontinuation from study therapy: Deaths” value [4] was 65 (8.7) n (%). For the same substance, the “Discontinuation from study therapy: Laboratory Adverse Experience” value [4] was 21 (2.8) n (%), the “Laboratory adverse experience causing discontinuation: Hyperkalemia” value [4] was 9 (1.2) n (%) and the “Trough diastolic blood pressure” value ([5]; at 1 year, average) was 78 mmHg. For the same substance, the “Trough systolic blood pressure” value ([5]; at 1 year, average) was 146 mmHg, the Mean arterial pressure ([5]; at 1 year, p<0.001 versus placebo) was 100.9 mmHg and the Pulse pressure ([5]; at 1 year, p=0.047 versus placebo) was 67.8 mmHg. For the same substance, the “Trough diastolic blood pressure” value ([5]; at study end, average) was 74 mmHg, the “Trough systolic blood pressure” value ([5]; at study end, average) was 140 mmHg and the Mean arterial pressure ([5]; at study end, p=0.59 versus placebo) was 95.9 mmHg. For the same substance, the Pulse pressure ([5]; at study end, p=0.77 versus placebo) was 66.7 mmHg, the “Trough diastolic blood pressure” value ([5]; at year 2, average) was 77 mmHg and the “Trough systolic blood pressure” value ([5]; at year 2, average) was 143 mmHg. It also gave a Pulse pressure ([5]; at year 2, p=0.37 versus placebo) of 66.2 mmHg and a Mean arterial pressure ([5]; at year 2, p=0.38 versus placebo) of 99.1 mmHg.

Source: patent publication US20030073705A1, “Method of treatment” (priority 2001, published 2003)
